From patent US4518597A, “Substituted benzoxazin-2-ones and pharmaceutical compositions containing them” (Dr. Karl Thomae GmbH, priority 1982, dated 1985)

Assays:
[1] = test system: phosphodiesterase (PDE) from human blood platelets; assay: PDE inhibition (phosphodiesterase from human blood platelets, 3H-cAMP hydrolysis); format: biochemical; details: human platelet PDE, 1 μmol/liter 3H-cAMP, pH 7.4, 15 minutes at 37° C.
Procedure: cAMP is hydrolyzed to AMP by phosphodiesterase (PDE) from various sources, including blood platelets.
The phosphodiesterase used was prepared by centrifugal extraction at 10,000 g from human blood platelets which were frozen in water and then thawed.
A quantity of 0.3 ml of a mixture containing 0.1 mol/liter of […] (pH 7.4), 3 mmols/liter of magnesium chloride, 1 mmol/liter of AMP, 1 μmol/liter of ^3 H-cAMP (specific activity about 10 MBq/μmol), PDE, and the inhibitor under investigation (water in the case of the control) was incubated for 15 minutes at 37° C. […] From a comparison of the results for inhibitor and control cases, the concentration of the respective inhibitor necessary for a 50% inhibiting effect (IC50) was calculated.

primary hemostasis = assay: Determination of the prolongation of bleeding time in conscious mice; format: in vivo; details: Mus musculus, 1 h, 10 mg/kg oral, one hour, as compared to a control group, read-out: Prolongation of Bleeding Time after One Hour (%)
Procedure: Since, in the event of injury, the first rapid cessation of bleeding is effected by the adhesion and aggregation of the thrombocytes at the vessel wall, the functioning of the thrombocytes can easily be determined by measuring the bleeding time with a standardized injury. The normal bleeding time in humans is between 1 and 3 minutes, assuming that there are sufficient intact, effective thrombocytes. If the number of thrombocytes is normal and the bleeding time is prolonged, this signifies an abnormality in the thrombocytes. This is found in some inborn errors of thrombocyte function. If, on the other hand, it is desired to prevent spontaneous aggregation of the thrombocytes and occlusion in the arterial system by drugs, successful therapy affecting the thrombocytes should prolong the bleeding time. Therefore, with use of an antithrombotic substance, a prolongation of the bleeding time is expected. Also, there should be a normal coagulation time since the plasma coagulation system is not affected.
To measure the bleeding time, 10 mg/kg of the test compounds were administered orally to conscious mice. After one hour, 0.5 mm of the tip of the tail of each mouse was cut off, and droplets of blood were gently removed with filter paper every 30 seconds. The number of drops of blood thus obtained gives a bleeding time (5 animals per experiment).
The results in the following table represent the prolongation of the bleeding time in percent as compared to a control group.

thrombocyte aggregation = assay: Antithrombotic activity: collagen-induced thrombocyte aggregation in platelet-rich plasma (Born and Cross); format: cell-based; details: Homo sapiens, 50% change in optical density, ten minutes at 37° C.
Procedure: The thrombocyte aggregation is determined in platelet-rich plasma from healthy test subjects using the method of Born and Cross [J. Physiol. 170, 397 (1964)]. To inhibit coagulation, the blood is mixed with 3.14 percent of sodium citrate in a volume ratio of 1:10.
The pattern of the decrease in optical density of the platelet suspension after administration of the aggregation-initiating substance is measured photometrically and recorded. The speed of aggregation is deduced from the angle of inclination of the density curve. The point of the curve where there is the most light transmittance is used to calculate the optical density.
The quantity of collagen used is as small as possible, but sufficient to produce an irreversible reaction curve. The standard commercial collagen made by Hormonchemie of Munich is used. Before the collagen is administered, the plasma is incubated with the substance for ten minutes at 37° C.
From the measurements obtained, and EC50 is obtained graphically, relating to a 50% change in optical density by way of an inhibition of aggregation.

mice = assay: Acute toxicity after oral administration of a single dose; format: in vivo; details: observation period 14 days; for Approximate Acute Toxicity: groups of ten, single oral dose; for animals died: single oral dose 1000 mg
Procedure: The acute toxicity of the test compounds was determined, as a guide, in groups of ten mice, after oral administration of a single dose (observation period: 14 days): […]

Row | SMILES | IC50 [1] | change in vivo at 10 mg/kg (primary hemostasis) | EC50 (thrombocyte aggregation) | Approximate Acute Toxicity (mice) | animals died (mice)
1 | CC1(C)OC(=O)Nc2ccc(OCCCC[S+]([O-])c3cc(Br)c(N)c(Br)c3)cc21 (centres unmarked) [P, 6-[4-(4-amino-3,5-dibromo-phenylsulfinyl)-butoxy]-4,4-dimethyl-4H-3,1-benzoxazin-2-one] | 56 nM | 73% | 550 nM |  | 
2 | COc1ccc(S(=O)(CCCCOc2ccc3c(c2)C(C)(C)OC(=O)N3)=NC(C)=O)cc1OC (centres unmarked) [R, 6-[4-(3,4-dimethoxy-N-acetyl-phenylsulfoximino)-butoxy]-4,4-dimethyl-4H-3,1-benzoxazin-2-one] | 710 nM | > 241% | 2300 nM | 1000 mg | 0 out of 10 animals died
3 | CC1(C)OC(=O)Nc2ccc(OCCCC[S+]([O-])c3ccc(Cl)cc3)cc21 (centres unmarked) [Compound A, 6-[4-(4-chloro-phenylsulfinyl)-butoxyl]-4,4-dimethyl-4H-3,1-benzoxazin-2-one] | 240 nM | > 248% | 340 nM | 1000 mg | 0 out of 10 animals died
4 | CC1(C)OC(=O)Nc2ccc(OCCCC[S+]([O-])c3ccc(C4CCCCC4)cc3)cc21 (centres unmarked) [E, 6-[4-(4-cyclohexyl-phenylsulfinyl)-butoxy]-4,4-dimethyl-4H-3,1-benzoxazin-2-one] | 78 nM | 46% | 320 nM | 1000 mg | 0 out of 10 animals died
5 | Cc1ccc(S(=N)(=O)CCCCOc2ccc3c(c2)C(C)(C)OC(=O)N3)cc1 (centres unmarked) [N, 6-[4-(4-methyl-phenylsulfoximino)-butoxy]-4,4-dimethyl-4H-3,1-benzoxazin-2-one] | 65 nM | 63% | 220 nM |  | 
6 | COc1ccc(S(=N)(=O)CCCCOc2ccc3c(c2)C(C)(C)OC(=O)N3)cc1OC (centres unmarked) [O, 6-[4-(3,4-dimethoxy-phenylsulfoximino)-butoxy]-4,4-dimethyl-4H-3,1-benzoxazin-2-one] | 200 nM | > 227% | 270 nM |  | 
7 | Cc1ccc([S+]([O-])CCCCOc2cc3c(cc2Cl)NC(=O)OC3(C)C)cc1 (centres unmarked) [U, 7-chloro-4,4-dimethyl-6-[4-(4-methyl-phenylsulfinyl)-butoxy]-4H-3,1-benzoxazin-2-one] | 3.4 nM | > 230% | 28 nM | 1000 mg | 0 out of 10 animals died
8 | CC1(C)OC(=O)Nc2ccc(OCCCC[S+]([O-])c3ccc(Br)cc3)cc21 (centres unmarked) [L, 6-[4-(4-bromo-phenylsulfinyl)-butoxy]-4,4-dimethyl-4H-3,1-benzoxazin-2-one] | 240 nM | > 266% | 420 nM |  | 
9 | CC1(C)OC(=O)Nc2cc(Br)c(OCCCC[S+]([O-])c3ccc(Cl)c(Cl)c3)cc21 (centres unmarked) [V, 7-bromo-6-[4-(3,4-dichloro-phenylsulfinyl)-butoxy]-4,4-dimethyl-4H-3,1-benzoxazin-2-one] | 3.8 nM | 100% | 44 nM | 1000 mg | 0 out of 10 animals died
10 | Cc1ccc([S+]([O-])CCCCOc2ccc3c(c2)C(C)(C)OC(=O)N3)cc1 (centres unmarked) [D, 6-[4-(4-methyl-phenylsulfinyl)-butoxy]-4,4-dimethyl-4H-3,1-benzoxazin-2-one] | 210 nM | > 250% | 330 nM | 1000 mg | 0 out of 10 animals died
11 | CC1(C)OC(=O)Nc2ccc(OCCCCS(=N)(=O)c3ccc(Br)cc3)cc21 (centres unmarked) [Compound I, 6-[4-(4-bromo-phenylsulfoximino)-butoxy]-4,4-dimethyl-4H-3,1-benzoxazin-2-one] | 110 nM | > 220% | 330 nM |  | 
12 | COc1ccc(S(=N)(=O)CCCCOc2ccc3c(c2)C(C)(C)OC(=O)N3)cc1 (centres unmarked) [C, 6-[4-(4-methoxy-phenylsulfoximino)-butoxy]-4,4-dimethyl-4H-3,1-benzoxazin-2-one] | 130 nM | > 241% | 270 nM | 1000 mg | 0 out of 10 animals died
13 | CC1(C)OC(=O)Nc2ccc(OCCCCS(=N)(=O)c3ccc(O)cc3)cc21 (centres unmarked) [B, 6-[4-(4-hydroxy-phenylsulfoximino)-butoxy]-4,4-dimethyl-4H-3,1-benzoxazin-2-one] | 230 nM | > 263% | 280 nM | 1000 mg | 0 out of 10 animals died
14 | CC(=O)N=S(=O)(CCCCOc1ccc2c(c1)C(C)(C)OC(=O)N2)c1cc(C(C)(C)C)c(O)c(C(C)(C)C)c1 (centres unmarked) [S, 6-[4-(3,5-di-tert.butyl-4-hydroxy-N-acetyl-phenylsulfoximino)-butoxy]-4,4-dimethyl-4H-3,1-benzoxazin-2-one] | 77 nM | > 226% | 2200 nM | 1000 mg | 0 out of 10 animals died
15 | COc1cccc(S(=N)(=O)CCCCOc2ccc3c(c2)C(C)(C)OC(=O)N3)c1 (centres unmarked) [G] | 77 nM | > 245% | 270 nM |  | 
16 | CC1(C)OC(=O)Nc2ccc(OCCCCS(=N)(=O)c3ccc(Cl)c(Cl)c3)cc21 (centres unmarked) [F, 6-[4-(3,4-dichloro-phenylsulfoximino)-butoxy]-4,4-dimethyl-4H-3,1-benzoxazin-2-one] | 42 nM | > 275% | 210 nM |  | 
17 | Cc1cc(S(=N)(=O)CCCCOc2ccc3c(c2)C(C)(C)OC(=O)N3)ccc1Br (centres unmarked) [M, 6-[4-(4-bromo-3-methyl-phenylsulfoximino)-butoxy]-4,4-dimethyl-4H-3,1-benzoxazin-2-one] | 66 nM | 100% | 250 nM |  | 
18 | CC1(C)OC(=O)Nc2ccc(OCCCCS(=N)(=O)c3ccc(F)cc3)cc21 (centres unmarked) [H, 6-[4-(4-fluoro-phenylsulfoximino)-butoxy]-4,4-dimethyl-4H-3,1-benzoxazin-2-one] | 180 nM | > 211% | 320 nM |  | 
19 | CC1(C)OC(=O)Nc2ccc(OCCCCS(=N)(=O)c3ccc(-c4ccccc4)cc3)cc21 (centres unmarked) [Q, 6-[4-(4-biphenylyl-sulfoximino)-butoxy]-4,4-dimethyl-4H-3,1-benzoxazin-2-one] | 6.8 nM | 128% | 250 nM |  | 
20 | Cc1ccc(S(=N)(=O)CCCCOc2cc3c(cc2Br)NC(=O)OC3(C)C)cc1 (centres unmarked) [T, 7-bromo-4,4-dimethyl-6-[4-(4-methyl-phenylsulfoximino)-butoxy]-4H-3,1-benzoxazin-2-one] | 1 nM | 60% | 69 nM | 1000 mg | 0 out of 10 animals died
21 | O=C1Nc2ccc(OCCCC[S+]([O-])c3ccccc3)cc2CO1 (centres unmarked) [K, 6-(4-phenylsulfinyl-butoxy)-4H-3,1-benzoxazin-2-one] | 1500 nM | 121% | 1900 nM |  | 
